According to paper PMC4494927, “Discovery of a small molecule targeting SET-PP2A interaction to overcome BCR-ABLT315I mutation of chronic myeloid leukemia” (Oncotarget, 2015):

Experiments:
CDK1/CyclinA2 = CDK1/CyclinA2 (Homo sapiens, UniProt P06493); assay: In vitro kinase assay (Kinase-Glo / ADP-Glo); assay type: biochemical; conditions: TGI1002 1 µM; means of two independent experiments; read-out: Inhibitory effect (%)
Protocol: (§1) All kinase reactions were carried out in 384-well plates. After addition of the compounds, kinase and ATP-substrate were added to the assay plates successively, the assay plates were centrifuged at 1,000 x g for 1 min and incubated for 1 h at 30 °C. Then, Kinase-Glo Plus or ADP-Glo reagent was added to each well. In Kinase-Glo assay, after addition of the reagent for 20 min, the luminescence was measured on an EnVision Multilabel Plate Reader (Perkin-Elmer). In ADP-Glo assay, after addition of the reagent for 40 min, Kinase Detection Reagent was added and incubated for another 30 min at 27 °C, and then the luminescence was measured. Kinase inhibition rates were calculated per manufacturer's instructions.

ERK1 = ERK1 (Homo sapiens, UniProt P27361); assay: In vitro kinase assay (Kinase-Glo / ADP-Glo); assay type: biochemical; conditions: TGI1002 1 µM; means of two independent experiments; read-out: Inhibitory effect (%)
Chain of ERK1 (P27361 whole entry): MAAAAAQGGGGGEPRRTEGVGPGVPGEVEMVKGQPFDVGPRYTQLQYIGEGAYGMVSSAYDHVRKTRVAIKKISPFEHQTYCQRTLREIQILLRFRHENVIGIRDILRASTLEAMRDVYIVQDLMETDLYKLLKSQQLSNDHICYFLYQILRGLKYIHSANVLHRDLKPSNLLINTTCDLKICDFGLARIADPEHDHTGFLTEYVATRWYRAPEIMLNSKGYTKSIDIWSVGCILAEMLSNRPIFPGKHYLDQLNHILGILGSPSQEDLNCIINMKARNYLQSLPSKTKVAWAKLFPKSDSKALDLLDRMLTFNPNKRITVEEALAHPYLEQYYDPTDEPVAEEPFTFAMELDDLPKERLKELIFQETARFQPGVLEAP
Protocol: as §1

GSK3β = GSK3β (Homo sapiens, UniProt P49841); assay: In vitro kinase assay (Kinase-Glo / ADP-Glo); assay type: biochemical; conditions: TGI1002 1 µM; means of two independent experiments; read-out: Inhibitory effect (%)
Chain of GSK3β (P49841 whole entry): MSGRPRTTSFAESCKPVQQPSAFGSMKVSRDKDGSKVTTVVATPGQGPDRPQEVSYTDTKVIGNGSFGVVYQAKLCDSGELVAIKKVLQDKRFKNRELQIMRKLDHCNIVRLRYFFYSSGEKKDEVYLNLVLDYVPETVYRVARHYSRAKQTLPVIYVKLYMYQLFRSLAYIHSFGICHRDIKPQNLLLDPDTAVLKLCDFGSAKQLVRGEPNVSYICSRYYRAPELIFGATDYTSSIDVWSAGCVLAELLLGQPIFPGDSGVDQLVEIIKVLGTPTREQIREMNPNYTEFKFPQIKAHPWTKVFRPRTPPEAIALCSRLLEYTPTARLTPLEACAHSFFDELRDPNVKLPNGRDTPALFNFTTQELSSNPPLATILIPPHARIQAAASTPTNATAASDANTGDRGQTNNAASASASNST
Protocol: as §1

PKCα = PKCα (Homo sapiens, UniProt P17252); assay: In vitro kinase assay (Kinase-Glo / ADP-Glo); assay type: biochemical; conditions: TGI1002 1 µM; means of two independent experiments; read-out: Inhibitory effect (%)
Protocol: as §1

PLK2 = PLK2 (Homo sapiens, UniProt Q9NYY3); assay: In vitro kinase assay (Kinase-Glo / ADP-Glo); assay type: biochemical; conditions: TGI1002 1 µM; means of two independent experiments; read-out: Inhibitory effect (%)
Chain of PLK2 (Q9NYY3 whole entry): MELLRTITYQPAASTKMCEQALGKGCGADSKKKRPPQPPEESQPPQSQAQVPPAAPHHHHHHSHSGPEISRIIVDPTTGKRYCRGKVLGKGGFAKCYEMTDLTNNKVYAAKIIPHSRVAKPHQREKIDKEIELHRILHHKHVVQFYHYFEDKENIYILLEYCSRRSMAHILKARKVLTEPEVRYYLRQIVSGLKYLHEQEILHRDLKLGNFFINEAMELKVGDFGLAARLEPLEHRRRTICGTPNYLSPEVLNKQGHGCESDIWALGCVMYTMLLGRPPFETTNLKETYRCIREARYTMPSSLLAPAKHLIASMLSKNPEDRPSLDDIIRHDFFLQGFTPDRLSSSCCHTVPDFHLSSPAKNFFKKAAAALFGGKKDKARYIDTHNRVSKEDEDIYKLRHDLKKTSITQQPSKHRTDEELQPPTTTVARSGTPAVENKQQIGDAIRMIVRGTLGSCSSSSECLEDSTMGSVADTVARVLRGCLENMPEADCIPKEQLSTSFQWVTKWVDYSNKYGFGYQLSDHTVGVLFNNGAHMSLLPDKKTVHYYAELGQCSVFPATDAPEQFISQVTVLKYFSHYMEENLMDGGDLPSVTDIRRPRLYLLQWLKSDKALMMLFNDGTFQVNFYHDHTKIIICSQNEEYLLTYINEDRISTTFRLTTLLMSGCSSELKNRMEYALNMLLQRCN
Protocol: as §1

c-KIT(V654A) = c-KIT(V654A) (Homo sapiens, UniProt P10721, V654A); assay: In vitro kinase assay (Kinase-Glo / ADP-Glo); assay type: biochemical; conditions: TGI1002 1 µM; means of two independent experiments; read-out: Inhibitory effect (%)
Chain of c-KIT(V654A) (P10721 26-976 V654A): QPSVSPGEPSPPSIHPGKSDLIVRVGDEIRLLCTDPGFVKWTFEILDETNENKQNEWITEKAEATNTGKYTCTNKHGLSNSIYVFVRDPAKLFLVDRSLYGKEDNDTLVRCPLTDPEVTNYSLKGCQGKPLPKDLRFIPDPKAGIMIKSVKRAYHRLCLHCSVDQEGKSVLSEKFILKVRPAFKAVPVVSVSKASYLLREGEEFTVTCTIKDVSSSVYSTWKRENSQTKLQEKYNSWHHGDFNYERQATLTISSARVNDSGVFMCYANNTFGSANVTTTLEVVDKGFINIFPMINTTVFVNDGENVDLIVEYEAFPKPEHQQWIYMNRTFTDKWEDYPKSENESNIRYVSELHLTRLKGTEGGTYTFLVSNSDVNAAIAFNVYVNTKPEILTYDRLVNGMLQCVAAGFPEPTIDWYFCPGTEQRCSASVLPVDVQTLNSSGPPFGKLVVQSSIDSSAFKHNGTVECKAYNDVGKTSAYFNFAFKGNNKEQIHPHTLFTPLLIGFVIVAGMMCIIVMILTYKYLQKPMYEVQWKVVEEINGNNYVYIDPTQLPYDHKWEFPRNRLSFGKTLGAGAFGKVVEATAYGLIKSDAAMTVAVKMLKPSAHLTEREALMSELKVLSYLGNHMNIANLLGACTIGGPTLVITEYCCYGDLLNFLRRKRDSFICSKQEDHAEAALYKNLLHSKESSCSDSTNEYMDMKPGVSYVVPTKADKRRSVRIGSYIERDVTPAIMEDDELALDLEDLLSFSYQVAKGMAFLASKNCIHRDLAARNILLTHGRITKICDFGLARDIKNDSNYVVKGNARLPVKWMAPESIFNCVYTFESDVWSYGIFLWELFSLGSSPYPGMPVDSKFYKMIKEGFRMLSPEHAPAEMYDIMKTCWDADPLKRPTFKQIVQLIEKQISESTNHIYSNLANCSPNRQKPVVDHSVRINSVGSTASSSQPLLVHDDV
Protocol: as §1

K562 cells = assay: Cytotoxicity assay (CellTiter-Glo); assay type: cell-based, human
Protocol: Twenty types of tumor cell lines were seeded at 4000 cells per well in 96-well plates. […] Cell viability was measured with the CellTiter-Glo Luminescent Cell Viability Assay (Promega) according to the manufacturer's instructions. Luminescence was measured using an EnVision Multilabel Plate Reader (Perkin-Elmer). The cytotoxicity of TGI1002 was expressed as the percentage of luminescence relative to that of untreated cells.

HT-29 cells = assay: Cytotoxicity assay (CellTiter-Glo); assay type: cell-based, human; conditions: 120 h, panel of 20 tumor cell lines
Protocol: (§2) Twenty types of tumor cell lines were seeded at 4000 cells per well in 96-well plates. TGI1002 dissolved in phosphate saline was added to cells at final concentrations ranging from 0.5 nM to 100 μM for 120 h. Cell viability was measured with the CellTiter-Glo Luminescent Cell Viability Assay (Promega) according to the manufacturer's instructions. Luminescence was measured using an EnVision Multilabel Plate Reader (Perkin-Elmer). The cytotoxicity of TGI1002 was expressed as the percentage of luminescence relative to that of untreated cells.

PC-3 cells = assay: Cytotoxicity assay (CellTiter-Glo); assay type: cell-based, human; conditions: 120 h, panel of 20 tumor cell lines
Protocol: as §2

[1] = molecular target: T1, recombinant human SET protein (Homo sapiens, UniProt Q01105); assay: Microscale thermophoresis (MST) binding to NT647-labeled SET; conditions: 15 μM NT647-labeled SET, PBS pH 8.0, 25 °C
T1 construct: Genes encoding the full length of human SET (GenBank No.: AAA60318.1) was synthesized; made in house; host or cells: E. coli (pET-21a)
T1 sequence (Q01105 1-277 isoform Q01105-2): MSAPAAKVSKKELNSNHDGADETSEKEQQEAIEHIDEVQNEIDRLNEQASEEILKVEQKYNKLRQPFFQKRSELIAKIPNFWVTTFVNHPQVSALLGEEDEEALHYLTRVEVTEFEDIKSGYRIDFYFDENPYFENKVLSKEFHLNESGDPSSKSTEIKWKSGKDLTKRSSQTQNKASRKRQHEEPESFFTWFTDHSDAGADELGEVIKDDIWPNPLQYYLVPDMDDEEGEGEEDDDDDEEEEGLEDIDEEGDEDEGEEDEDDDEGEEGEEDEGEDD
Protocol: Thermophoresis analysis was performed during 30 s on a NanoTemper Monolith NT.115 instrument (20% LED, 40% MST power) at 25 °C.

PP2A = assay: PP2Ac immunoprecipitation phosphatase assay in K562 cells; assay type: cell-based, human; conditions: 10 μM, 24 h
Protocol: PP2A assay from whole cell lysates was carried out using commercial PP2Ac immunoprecipitation phosphatase assay kit (Millipore). Briefly, 200 μg protein lysates prepared as described above, 4 μg PP2Ac-specific antibody, and 40 μL protein A-agarose were added to TBS buffer (20 mM Tris-HCl, 150 mM NaCl, and 0.1% Tween 20) to a final volume of 500 μL and immunoprecipitation was carried out at 4 °C for 2 h. The immunoprecipitates were used in the phosphatase reaction following the manufacturer's protocol.

tubulin = assay: Microtubule assembly assay in K562 cells; assay type: cell-based, human; conditions: 24 h
Protocol: Separation of insoluble polymerized tubulin from soluble tubulin dimers and analysis of the effects of TGI1002 on tubulin polymerization were performed as described previously. In brief, K562 cells at a density of 1 × 10^6/100 mm^2 dishes were treated with indicated concentrations of TGI1002 at 24 h. Cells were washed with PBS for three times before adding polymerization lysate buffer containing 20 mM Tris-HCl (pH6.8), 1 mM MgCl2, 2 mM EGTA, […] aprotinin, […] leupeptin, 1 mM phenylmethylsulfonyl fluoride, 1 mM orthovanadate and 0.5% Nonidet. After centrifugation at 15,000 x g for 10 min at 4 °C, the pellets were resuspended in SDS-PAGE loading buffer and dissolved by heating at 95 °C for 10 min. Beta-tubulin was then Western blotted from both pellets (containing polymerized microtubules) and supernatants (containing depolymerized microtubules).

[2] = tested on: K562 cells expressing SET shRNA; assay: Cytotoxicity in K562 cells with stable SET knock-down (shRNA); assay type: cell-based, human; conditions: SET knock-down vs control K562 cells
Protocol: as §2
Lentivirus-encoded shRNA against human SET (GenBank No.: NM_003011) and a noncoding gene (negative control) were prepared by Genechem and titered to 2 × 10^8 (TU/mL). K562 cells (1 × 10^4 cells/well) were seeded in 96-well plates overnight before transfection. The virus (10 μL) was mixed with 90 μL complete medium containing polybrene (5 μg/mL) and added to cells and incubated for 12 h at 37 °C. Then, the cells were incubated in fresh complete RPMI 1640 medium for 72 h, followed by incubation in complete medium containing puromycin (5 μg/mL). After 2 weeks of selection, individual clones were isolated, passaged and harvested for subsequent studies. Identification of stable SET-knockdown K562 cell line was performed by Western blotting. Effects of TGI1002 on cell viability of SET-knockdown K562 cells were studied as described above.

Chain of CDK1/CyclinA2 (P06493 whole entry): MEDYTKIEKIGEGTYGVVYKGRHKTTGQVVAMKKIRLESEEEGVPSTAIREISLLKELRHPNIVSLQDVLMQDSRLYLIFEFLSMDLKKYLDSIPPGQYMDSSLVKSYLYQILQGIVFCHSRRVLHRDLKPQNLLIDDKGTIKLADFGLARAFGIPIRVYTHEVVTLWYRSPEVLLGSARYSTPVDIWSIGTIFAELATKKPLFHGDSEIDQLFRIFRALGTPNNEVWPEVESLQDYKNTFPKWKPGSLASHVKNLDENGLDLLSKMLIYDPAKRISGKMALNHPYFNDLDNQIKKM
Chain of CDK1/CyclinA2 (P20248 whole entry partner): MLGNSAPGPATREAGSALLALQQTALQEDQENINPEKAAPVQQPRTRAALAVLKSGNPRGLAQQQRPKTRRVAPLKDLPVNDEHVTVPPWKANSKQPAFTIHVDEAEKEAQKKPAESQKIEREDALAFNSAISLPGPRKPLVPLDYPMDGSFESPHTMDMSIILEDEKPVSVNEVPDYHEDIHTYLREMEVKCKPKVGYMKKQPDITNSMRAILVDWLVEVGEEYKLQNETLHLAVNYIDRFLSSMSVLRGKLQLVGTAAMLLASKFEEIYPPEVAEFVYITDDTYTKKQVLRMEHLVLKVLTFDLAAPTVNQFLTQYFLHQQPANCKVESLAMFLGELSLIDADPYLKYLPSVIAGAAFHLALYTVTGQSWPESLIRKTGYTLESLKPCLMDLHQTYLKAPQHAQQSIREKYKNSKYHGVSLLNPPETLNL

SMILES: Cc1ccc(NC(=O)c2cccc(CN3CCN(C)CC3)c2)cc1Oc1nccc(-c2cccnc2)n1.Cl [TGI1002, N-(4-methyl-3-((4-(pyridin-3-yl)-pyrimidin-2-yl)oxy)phenyl)-3-((4-methylpiperazin-1-yl)methyl)benzamide hydrochloride]
- inhibition at 1 µM (CDK1/CyclinA2): 5.27%
- inhibition at 1 µM (ERK1): 0.01%
- inhibition at 1 µM (GSK3β): 2.59%
- inhibition at 1 µM (PKCα): 5.57%
- inhibition at 1 µM (PLK2): 3.52%
- inhibition at 1 µM (c-KIT(V654A)): 11.7%
- IC50 (K562 cells; Homo sapiens, 72 h, cell viability): 11 ± 1.98 µM
- fold less potent than imatinib (K562 cells; IC50 at 72 h): approximately 35 fold
- cytotoxicity (HT-29 cells): cytotoxic effects
- cytotoxicity (PC-3 cells): cytotoxic effects
- Kd [1]: 1.66 ± 0.45 µM
- PP2A activity enhanced compared to untreated cells (PP2A): 144.67 ± 5.51%
- amounts of tubulin in depolymerized fraction S and polymerized fraction P (tubulin): not affected
- sensitivity of K562 cells to treatment after SET-specific shRNA [2]: decreased the sensitivity
